Assay results from patent publication US4749790A, “Process for preparing H2 receptor antagonist ascorbate compounds” (priority 1985, dated 1988).
≈ marks a conversion by molar mass, not a printed value. Where two headings read alike, the source gives them in different places.

Legend:
[1] = Nitrosation in gastric juice or simulated gastric juice (Griess reagent, TLC); details: for NC (nitrosocimetidine) found: 75 ml simulated gastric juice, 37° C., pH 1.0-3.5, ascorbate-nitrite 6:1 molar ratio
[2] = Stability to ambient environment (air, light, oxidation)
[3] = 70° C.; 20 min (10% hydrochloric acid), 180 min (ascorbic acid); cited from earlier work
[4] = wide pH range; cited from earlier work
pH of aqueous solution = type: physicochemical
[5] = system: desoxyribonucleic acid (DNA); details: cimetidine 250 mg/kg with nitrite 80 mg/kg; cited from earlier work
gastric carcinoma = details: in vivo; cited from earlier work
rats = details: eight days treatment, 500 mg/kg; cited from earlier work

## CNC(=C[N+](=O)[O-])NCCSCc1ccc(CN(C)C)o1 [Example 18, Ranitidine diascorbate]
[1]; gastric juice pH 1.5, 318 mg diascorbate, 18.2 mg sodium nitrite, 60 min
  TLC spot of nitroso derivative at Rf = 0.83: did not appear

## CN/C(=N/CCSCc1nc[nH]c1C)NC#N [Example 16, Cimetidine diascorbate]
[2]
  stability to air, light, ambient conditions: has to be preserved from the air and light
[1]
  NC (nitrosocimetidine) found: 0.13 ppm
[1]; abnormally high nitrite concentrations
  NC produced in cases of hyperchlorhydria: 0.08 ppm

## CNC(=C[N+](=O)[O-])NCCSCc1ccc(CN(C)C)o1 [ranitidine, N-(2-(((5-((dimethylamino)methyl)-2-furanyl)methyl)thio)ethyl)N'-methyl-2-nitro-1,1-ethenediamine, reference compound]
[1]; gastric juice conditions
  formation of nitroso compounds / nitrosatability: causes the formation of nitroso derivatives and nitrosated degradation products

## O=C1O[C@H]([C@@H](O)CO)C(O)=C1O [ascorbic acid, 3-oxo-L-gulofuranelactone (enolic form)]
[3]
  denitrosation: innefective
[4]
  inhibition of N-nitroso compound formation: most effective over a wide pH range

## Cc1ccc(Cc2c[nH]c(NCCSCc3ccc(CN(C)C)o3)nc2=O)cn1 [Example 15, CM.10 antagonist L-ascorbate]
Solubility in water
  water solubility (in words): water soluble

## Nc1n[s+]([O-])nc1NCCCOc1cccc(CN2CCCCC2)c1 [Example 14, CM.5 antagonist L-ascorbate]
Solubility in water
  water solubility (in words): water soluble
[2]
  stability to air, light, ambient conditions: has to be preserved from the air and light

## Cl [hydrochloric acid]
[3]
  denitrosation: innefective

## CNC(=NC#N)NCCSCc1nc[nH]c1C [Example 1, Cimetidine L-ascorbate]
pH of aqueous solution
  pH of aqueous solution: 4.5
Duodenal ulcer; maintenance doses 680 mg ascorbate or 860 mg diascorbate, one year continuously, two years with breaks
  outcome of relapse and improvement maintenance cases: normality being achieved
Duodenal ulcer; males aged 55-60 years, usual periods of cimetidine medication
  outcome in males with duodenal ulcer diagnosis: back to normal
Solubility in water
  water solubility (in words): soluble in water
[1]; listed as cimetidine ascorbate
  NC (nitrosocimetidine) found: 0.18 ppm

## CN/C(=N/CCSCc1nc[nH]c1C)NC#N [cimetidine, N"-cyano-N'-methyl-N-2-(5-methyl-1H-imidazol-4-yl)methylthioethylguanidine]
[5]
  evidence of DNA damage: no evidence of desoxyribonucleic acid (DNA) damage
Gastric carcinoma
  gastric carcinoma related with treatment: appearance of a gastric carcinoma
[1]; 400 mg cimetidine, 36.4 mg sodium nitrite, 75 ml gastric juice, pH 1.5, 37° C., 60 min
  NCD (nitroso compound derivatives) determined: 100 ppm

## CNC(=C[N+](=O)[O-])NCCSCc1ccc(CN(C)C)o1 [Example 8, Ranitidine L-ascorbate]
pH of aqueous solution
  pH of aqueous solution: 3.5

## Cc1[nH]cnc1CSCCN=C(NC#N)N(C)N=O [NC, nitrosocimetidine]
rats
  toxic effect: no toxic effect

## NC(N)=Nc1nc(CSCCC(N)=NS(N)(=O)=O)cs1 [Example 12, Famotidine L-ascorbate]
pH of aqueous solution
  pH of aqueous solution: 5.9
pH of aqueous solution; listed as famotidine ascorbate
  pH of aqueous solution: 5.6
Solubility in water; water, Solubility in water, room temperature where printed
  solubility: 75 mg/mL (≈ 222 mM)
[2]
  stability to air, light, ambient conditions: has to be preserved from the air and light
